Data on 1 compound can be found in patent US7045591B2, “Selective cyclic peptides with melanocortin-4 receptor (MC4-R) agonist activity” (Hoffmann-La Roche Inc., priority 2000, dated 2006).

This assay addresses T1, MC-4 receptor (Homo sapiens, UniProt P32245).
T1 construct: expressed in transfected cells; host or cells: HEK 293 cells (G418 selected)
Description: Agonist assay: cAMP response in HEK 293 cells transfected with the MC-4 receptor (Biotrak-cAMP SPA). In kind it is cell-based. The note with it: HEK 293 cells transfected with MC-4 receptor, cAMP increase; read-out: EC50 for MC4-R agonist activity. As for the experimental part: Description: HEK 293 cells transfected with either the MC-4 receptor or MC-1 receptor were grown in 96 well plates. The cells were stimulated with either 100 nM NDP-αMSH or screening compounds. Cyclic AMP was extracted from the cells and concentrations were determined using a Biotrak-cAMP SPA assay. Agonists were identified as those compounds causing an increase in cAMP.
Cell Culture: HEK 293 cells transfected with either the MC-4 receptor or MC-1 receptor were cultured in 75 cm^2 flasks in D-MEM supplemented with 10% FCS and 500 μg/ml G418. Cells were trypsinized and split 1:3 into 96 well flat-bottom tissue culture treated plates. Cells were stimulated at confluence (day 2-4).
cAMP Response: Compounds serially diluted in 100% DMSO were further diluted 1:200 (2.5 μl compound dilution +500 μl media) in D-MEM containing 10% FBS and 0.1 mM IBMX. For unstimulated cells, 2.5 μl of DMSO was added to 500 μl of media. For NDP-αMSH stimulated cells, 2.5 μl of 20μM NDP-αMSH in 100% DMSO was added to 500μl of media (final conc. 100 nM). Final concentration of DMSO in all wells was 0.5%.
Note: Each sample was run in duplicate on separate plates. […]
cAMP Assay: The extracted samples and all reagents included in the kit were brought to room temperature. […] [125I ]cAMP binding to the SPA beads was determined by counting each plate for 2 minutes on a Packard TopCount™. […]

Bridge positions count the residues as written; N and C are the ends. Square brackets hold non-standard residues; d marks the D form. Peptide text beside a SMILES is read from it. * marks the point of attachment. ξ: configuration not given here. Ac6c(4-Ph-cis-to-N) = N[C@]1(C(=O)O)CC[C@H](c2ccccc2)CC1; Pentanoyl = CCCCC(=O)*; ξK = NCCCCC(N)C(=O)O Some results are limits rather than exact numbers.

T1 sequence (P32245 whole entry): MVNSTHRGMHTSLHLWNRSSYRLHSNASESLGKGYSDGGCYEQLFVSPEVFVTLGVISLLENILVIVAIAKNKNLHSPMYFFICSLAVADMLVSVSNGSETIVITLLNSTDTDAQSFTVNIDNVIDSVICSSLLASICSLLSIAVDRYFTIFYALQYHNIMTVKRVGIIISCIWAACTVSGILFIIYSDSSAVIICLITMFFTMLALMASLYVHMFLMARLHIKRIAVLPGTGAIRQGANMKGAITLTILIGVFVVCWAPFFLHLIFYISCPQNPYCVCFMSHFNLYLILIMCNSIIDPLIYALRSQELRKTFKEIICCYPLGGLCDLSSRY

The EC50 is the midpoint of the concentration-response curve. Consider `CCCCC(=O)N[C@H]1CC(=O)NCCCCC(C(N)=O)NC(=O)[C@H](Cc2c[nH]c3ccccc23)NC(=O)[C@H](C)NC(=O)[C@@H](Cc2ccccc2)NC(=O)[C@]2(CC[C@H](c3ccccc3)CC2)NC1=O` (stereo partly drawn) [Penta-cyclo(Asp-Lys)-Asp-Apc-(D)Phe-Ala-Trp-Lys-NH2] (Pentanoyl-D[Ac6c(4-Ph-cis-to-N)][dF]AW[ξK]-NH2; lactam 1-6), for which the concentration giving a half-maximal response (EC50) was below 500 nM.
